In patent US4061779A, “Naphthalene derivatives having anti-inflammatory activity” (Beecham Group Limited, priority 1973, dated 1977):
Like-named read-outs stand apart in the source and are kept apart here.

Tests used:
oestrogenicity [1] = test: Allen-Doisy Test, oestrogenic activity (mouse); format: in vivo
Text: (§1) Using a conventional Allen-Doisy Test, the Oestrogenic activity of certain compounds of the invention was ascertained. The anti-inflammatory activity of certain compounds of the invention was ascertained by using a standard Rat Paw Carrageenin Test.

Rat Paw Carrageenin = test: standard Rat Paw Carrageenin Test, anti-inflammatory activity; format: in vivo
Text: as §1

oestrogenicity [2] = test: Allen-Doisy Test, oestrogenic activity (rat); format: in vivo
Text: as §1

[3] = General statements on gastro-intestinal irritation, oestrogenicity and anti-inflammatory activity; format: in vivo
endometrium = test: Gestagenic Activity in Rabbits (Clauberg test); format: in vivo, rabbit; settings: 200 mg/kg p.o., 4 days
Text: k. Gestagenic Activity in Rabbits

uterine weight = test: Oestrogenic Test in Rats (ovariectomised rats, uterine weight); format: in vivo, rat; settings: 200 mg/kg p.o. and 600 mg/kg p.o., 4 days
Text: i. Oestrogenic Test in Rats

[4] = tested on: Phenyl-p-quinone Induced Writhing; test: Phenyl-p-quinone Induced Writhing in Mice; format: in vivo; settings: Mus musculus, po, read-out: ED50 for analgesic activity
Text: f. Phenyl-p-quinone Induced Writhing in Mice

gastro intestinal tract = test: Long term toxicity tests, gastro-intestinal tolerance; format: in vivo, rat; settings: 180 mg/kg p.o. for 28 days
[5] = tested on: Carrageenin Induced Oedema; test: Carrageenin Induced Oedema in Rats; format: in vivo, rat
Text: a. Carrageenin Induced Oedema in Rats

[6] = tested on: release of corticosteroids from the adrenal gland; test: Interactions with the Adrenal/Pituitary Axis; format: in vivo; settings: 140 mg/kg p.o./day, five days
Text: h. Interactions with the Adrenal/Pitutary Axis

[7] = tested on: cultured mouse peritoneal macrophages; test: Macrophage Plasminogen Activator Release Test; format: cell-based; settings: 1 mg/ml
Text: e. Macrophage Plasmongen Activator Release Test
On the test system of J. D. Vassalli et al., Cell, 8, 271-281 (1976), the compound […] caused 90% inhibition of the release of plasmogen activator from cultured mouse peritoneal macrophages.

[8] = tested on: pyresis induced by Shigella endotoxin; test: Anti-pyretic Effect in Rabbits; format: in vivo, rabbit; settings: doses down to 100 mg/kg p.o.
Text: g. Anti-pyretic Effect in Rabbits

[9] = tested on: Cotton Pellet Induced Granuloma; test: Cotton Pellet Induced Granuloma in Rats; format: in vivo, rat; settings: 50 mg/kg p.o., day 0 to 5 days
Method: c. Cotton Pellet Induced Granuloma in Rats
Consistent activity (reducing induced granuloma by more than 30%) has been observed at 50 mg/kg p.o. dosed from day 0 to 5 days.

[10] = tested on: gastric secretion / gastric damage; test: Gastric Damage in Pyloric Ligated Rats; format: in vivo; settings: up to 200 mg/kg intra-duodenally, pyloric ligated rat
Text: 1. Gastric Damage in Pyloric Ligated Rats

UV Induced Erythrema = UV Induced Erythrema in Guinea Pigs; format: in vivo, guinea pig; settings: Cavia porcellus, po
Text: b. UV Induced Erythrema in Guinea Pigs

[11] = tested on: seminal vesicles, prostate gland or levator ani muscles; test: Anabolic/Androgenic Activity in Rats; format: in vivo, rat; settings: 200 mg/kg p.o.
Text: j. Anabolic/Adrogenic Activity in Rats

[12] = tested on: gastric erosions or ulceration; test: Ulcerogenic Activity in Rats; format: in vivo, rat; settings: 250 or 500 mg/kg p.o.
Text: m. Ulcerogenic Activity in Rats.

Adjuvant arthritis = test: Adjuvant Arthritis in Rats; format: in vivo, rat; settings: 60 mg/kg p.o. daily
Method: d. Adjurant Arthritis in Rats
Adjuvant arthritis is reduced in rats by the daily administration of doses of 60 mg/kg p.o.

## COc1ccc2cc(/C(C)=C/C(C)=O)ccc2c1 [trans-4-(6'-methoxy-2'-naphthyl)-pent-3-ene-2-one]
Oestrogenicity [1]; 100 mg/kg sub.cut.
  Oestrogenicity, Allan-Doisy test: Inactive
Rat Paw Carrageenin; 100 mg/kg orally
  Anti-inflammatory, rat carrageenan: Active

## COc1ccc2cc(C=CC(C)=O)ccc2c1 [4-(6-Methoxy-2-naphthyl)-3-buten-2-one]
Rat Paw Carrageenin; 300 mg/kg orally
  Anti-inflammatory, rat carrageenan: Active
Oestrogenicity [2]; 300 mg/kg orally
  Oestrogenicity, Allan-Doisy test: Inactive

## COc1ccc2cc(CCC(C)=O)ccc2c1 [4-(6'-methoxy-2'-naphthyl)butan-2-one]
[3]; at the therapeutic dose
  oestrogenic effects or gastric-irritant effects: not causing either oestrogenic effects or pronounced gastric-irritant effects
[3]; general statement
  anti-inflammatory activity: good spectrum of anti-inflammatory activity
  anti-pyretic and analgesic activity: anti-pyretic and analgesic activity
  hormone like activity: free of hormone like activity
  therapeutic ratio based on gastro intestinal irritancy: good therapeutic ratio
endometrium
  uterine hypertrophy or progestational changes in the endometrium: did not result in uterine hypertrophy or progestational changes in the endometrium
Uterine weight
  increase in uterine weight: did not result in any increase in uterine weight
[4]; mice
  ED50: ~110 mg/kg
Gastro intestinal tract
  gastro intestinal tolerance: well tolerated
[5]; 5, 10, 35 and 70 mg/kg p.o.
  reduction in induced oedema volume: significant reduction
[5]; Rattus norvegicus, po, rats
  ED25: 7 to 10 mg/kg
[5]; adrenalectomised rats
  Activity in adrenalectomised rats: Activity is maintained
[6]
  interference with release of corticosteroids in response to ACTH administration or to ether stress: does not interfere
[7]
  inhibition of the release of plasminogen activator: slight inhibition
[8]
  reduction of pyresis induced by intravenous Shigella endotoxin: reduced pyresis
[9]
  changes in body weight or in weight of spleen, thymus, kidney, liver or adrenal glands: not accompanied by marked changes
[10]
  overt gastric damage: nor did overt gastric damage result
  systemically mediated effect on the volume of gastric secretion: have not been found to have a systemically mediated effect
UV Induced Erythrema
  ED50: 9 to 15 mg/kg
[11]; 4 days, castrated young male rats
  increase in weight of seminal vesicles, prostate gland or levator ani muscles: did not result in any increase
[11]; testosterone 1 mg/kg s.c.
  interference with androgenic/anabolic activity of concomitantly administered testosterone: did not interfere
[12]; longer than 4 hours
  gastric erosions, longer contact times: in some cases to some degree of erosions
[12]; rats starved 18 hours, 1 or 4 hours after dosing
  gastric erosions or ulceration: did not give rise to gastric erosions or ulceration
Adjuvant arthritis
  Adjuvant arthritis: reduced

## COc1ccc2cc(C(C)CC(C)=O)ccc2c1 (centres unmarked) [4-(6'-methoxy-2'-naphthyl)-pentan-2-one]
Rat Paw Carrageenin; 50 mg/kg orally
  Anti-inflammatory, rat carrageenan: Slightly Active
Rat Paw Carrageenin; 100 mg/kg orally, 1 hr. after dosing
  Anti-inflammatory, rat carrageenan: Active
Rat Paw Carrageenin; 300 mg/kg orally
  Anti-inflammatory, rat carrageenan: Active
Oestrogenicity [2]; 200 mg/kg orally
  Oestrogenicity, Allan-Doisy test: Inactive
Oestrogenicity [2]; 300 mg/kg orally
  Oestrogenicity, Allan-Doisy test: Active

## COc1ccc2cc(C(C)C(C)=O)ccc2c1 (centres unmarked) [3-(6'-methoxy-2'-naphthyl)-butan-2-one, 3-(6'-methoxy-2'-napthyl)-butan-2-one]
Oestrogenicity [1]; 50 mg/kg sub.cut.
  Oestrogenicity, Allan-Doisy test: Inactive
Rat Paw Carrageenin; 100 mg/kg orally
  Anti-inflammatory, rat carrageenan: Active
Oestrogenicity [2]; 600 mg/kg orally
  Oestrogenicity, Allan-Doisy test: Inactive

## COc1ccc2cc(C(C)C(C)(O)C(C)=O)ccc2c1 (centres unmarked) [3-hydroxy-3-methyl-4-(6'-methoxy-2'-naphthyl)-pentan-2-one]
Oestrogenicity [1]; 100 mg/kg sub.cut.
  Oestrogenicity, Allan-Doisy test: Active
Rat Paw Carrageenin; 50 and 100 mg/kg orally
  Anti-inflammatory, rat carrageenan: Active

## CCC(c1ccc2cc(OC)ccc2c1)C(C)(O)C(C)=O (centres unmarked) [3-hydroxy-3-methyl-4-(6'-methoxy-2'-naphthyl)-hexan-2-one]
Oestrogenicity [1]; 50 mg/kg sub.cut.
  Oestrogenicity, Allan-Doisy test: Active
Rat Paw Carrageenin; 100 mg/kg orally
  Anti-inflammatory, rat carrageenan: Inactive

## CC(=O)Oc1ccccc1C(=O)O [ASPIRIN, acetylsalicylic acid, reference compound]
[4]
  ED50: ~60 mg/kg
